The subject of assay [1] is A549. Put plainly: Antiproliferative activity against human A549 cells assessed as inhibition of cell growth by MTT assay. In kind it is functional, cell-based.
Another assay has as its system HCT-116. Put plainly: Antiproliferative activity against human HCT-116 cells assessed as inhibition of cell growth by MTT assay. In kind it is functional, cell-based.
For another assay, the system named is MDA-MB-231. As to the kind of experiment: Antiproliferative activity against human MDA-MB-231 cells assessed as inhibition of cell growth by MTT assay. In kind it is functional, cell-based.
The test system of assay [2] is A549. Put plainly: Upregulation of phosphorylated p38/p38 protein expression in human A549 cells at 0.11 to 0.34 uM measured after 48 hrs by Western blot analysis. In kind it is functional, cell-based. The conditions noted are these: dose 0.11-0.34 µM.
Assay [3] deals with A549. Put plainly: Induction of apoptosis in human A549 cells assessed as late apoptotic cells at 0.11 uM incubated for 48 hrs by Annexin V/PI staining based flow cytometry analysis (reference value: 2.96%). In kind it is functional.
The subject of assay [4] is A549. As to the kind of experiment: Induction of cell cycle arrest in human A549 cells assessed as accumulation at S phase at 0.22 uM incubated for 48 hrs by PI staining based flow cytometry analysis (reference value: 12.105%). In kind it is functional.
In assay [5] the test system is A549. As to the kind of experiment: Inhibition of cell migration in human A549 cells at 0.22 uM measured after 24 hrs by scratch assay relative to control. In kind it is functional.
For assay [6], the system named is A549. Put plainly: Induction of apoptosis in human A549 cells assessed as late apoptotic cells at 0.22 uM incubated for 48 hrs by Annexin V/PI staining based flow cytometry analysis (reference value: 2.96%). In kind it is functional.
The test system of assay [7] is A549. As to the kind of experiment: Induction of apoptosis in human A549 cells assessed as dead cells at 0.11 uM incubated for 48 hrs by Annexin V/PI staining based flow cytometry analysis (reference value: 4.58%). In kind it is functional.
For assay [8], the system named is A549. Put plainly: Induction of cell cycle arrest in human A549 cells assessed as accumulation at S phase at 0.34 uM incubated for 48 hrs by PI staining based flow cytometry analysis (reference value: 12.105%). In kind it is functional.
The test system of assay [9] is A549. As to the kind of experiment: Inhibition of cell migration in human A549 cells at 0.22 uM measured after 48 hrs by scratch assay relative to control. In kind it is functional.
For assay [10], the system named is A549. As to the kind of experiment: Induction of apoptosis in human A549 cells assessed as reduction in Bcl-2 protein expression at 0 to 0.34 uM measured after 48 hrs by Western blot analysis. In kind it is functional, cell-based. The following applies: dose 0-0.34 µM.
Assay [11] has as its system A549. Put plainly: Induction of cell cycle arrest in human A549 cells assessed as accumulation at G2/M phase at 0.11 uM incubated for 48 hrs PI staining based by flow cytometry analysis (reference value: 1.14%). In kind it is functional.
Assay [12] deals with A549. As to the kind of experiment: Inhibition of cell migration in human A549 cells at 0.34 uM measured after 24 hrs by scratch assay relative to control. In kind it is functional.
The subject of assay [13] is A549. Put plainly: Downregulation of phosphorylated JNK/JNK protein expression in human A549 cells at 0.11 to 0.34 uM measured after 48 hrs by Western blot analysis. The following applies: dose 0.11-0.34 µM. In kind it is functional, cell-based.
For assay [14], the system named is A549. Put plainly: Induction of apoptosis in human A549 cells assessed as live cells at 0.11 uM incubated for 48 hrs by Annexin V/PI staining based flow cytometry analysis (reference value: 90.7%). In kind it is functional.
In assay [15] the test system is A549. As to the kind of experiment: Induction of apoptosis in human A549 cells assessed as live cells at 0.22 uM incubated for 48 hrs by Annexin V/PI staining based flow cytometry analysis (reference value: 90.7%). In kind it is functional.
The test system of assay [16] is A549. As to the kind of experiment: Induction of apoptosis in human A549 cells assessed as increase in caspase-3 protein expression at 0 to 0.34 uM measured after 48 hrs by Western blot analysis. In kind it is functional, cell-based. The following applies: dose 0-0.34 µM.
Assay [17] has as its system A549. As to the kind of experiment: Antiproliferative activity against human A549 cells assessed as inhibition of cell growth measured after 24 hrs by MTT assay. In kind it is functional, cell-based. The following applies: A549, 24 h.
Assay [18] has as its system A549. Put plainly: Induction of cell cycle arrest in human A549 cells assessed as accumulation at G0/G1 phase at 0.34 uM incubated for 48 hrs by PI staining based flow cytometry analysis (reference value: 84.47%). In kind it is functional.
In assay [19] the test system is A549. As to the kind of experiment: Induction of cell cycle arrest in human A549 cells assessed as accumulation at G2/M phase at 0.34 uM incubated for 48 hrs by PI staining based flow cytometry analysis (reference value: 1.14%). In kind it is functional.
Assay [20] deals with A549. Put plainly: Induction of cell cycle arrest in human A549 cells assessed as accumulation at G0/G1 phase at 0.11 uM incubated for 48 hrs by PI staining based flow cytometry analysis (reference value: 84.47%). In kind it is functional.
In assay [21] the test system is A549. As to the kind of experiment: Antiproliferative activity against human A549 cells assessed as inhibition of cell growth measured after 48 hrs by MTT assay. The following applies: A549, 48 h. In kind it is functional, cell-based.
The test system of assay [22] is A549. Put plainly: Induction of cell cycle arrest in human A549 cells assessed as accumulation at G2/M phase at 0.22 uM incubated for 48 hrs by PI staining based flow cytometry analysis (reference value: 1.14%). In kind it is functional.
The subject of assay [23] is A549. As to the kind of experiment: Induction of apoptosis in human A549 cells assessed as early apoptotic cells at 0.22 uM incubated for 48 hrs by Annexin V/PI staining based flow cytometry analysis (reference value: 1.79%). In kind it is functional.
Assay [24] deals with A549. As to the kind of experiment: Inhibition of cell migration in human A549 cells at 0.11 uM measured after 48 hrs by scratch assay relative to control. In kind it is functional.
Assay [25] concerns A549. As to the kind of experiment: Induction of cell cycle arrest in human A549 cells assessed as accumulation at G0/G1 phase at 0.22 uM incubated for 48 hrs by PI staining based flow cytometry analysis (reference value: 84.47%). In kind it is functional.
In assay [26] the test system is A549. Put plainly: Induction of cell cycle arrest in human A549 cells assessed as accumulation at S phase at 0.11 uM incubated for 48 hrs by PI staining based flow cytometry analysis (reference value: 12.105%). In kind it is functional.
Assay [27] deals with A549. Put plainly: Induction of apoptosis in human A549 cells assessed as increase in BAX protein expression at 0 to 0.34 uM measured after 48 hrs by Western blot analysis. In kind it is functional, cell-based. The conditions noted are these: dose 0-0.34 µM.
In assay [28] the test system is A549. As to the kind of experiment: Inhibition of cell migration in human A549 cells at 0.11 uM measured after 24 hrs by scratch assay relative to control. In kind it is functional.
The subject of assay [29] is A549. As to the kind of experiment: Induction of apoptosis in human A549 cells assessed as late apoptotic cells at 0.34 uM incubated for 48 hrs by Annexin V/PI staining based flow cytometry analysis (reference value: 2.96%). In kind it is functional.
The test system of assay [30] is A549. Put plainly: Induction of apoptosis in human A549 cells assessed as early apoptotic cells at 0.11 uM incubated for 48 hrs by Annexin V/PI staining based flow cytometry analysis (reference value: 1.79%). In kind it is functional.
In assay [31] the test system is A549. As to the kind of experiment: Induction of apoptosis in human A549 cells assessed as dead cells at 0.34 uM incubated for 48 hrs by Annexin V/PI staining based flow cytometry analysis (reference value: 4.58%). In kind it is functional.
The test system of assay [32] is A549. Put plainly: Induction of apoptosis in human A549 cells assessed as early apoptotic cells at 0.34 uM incubated for 48 hrs by Annexin V/PI staining based flow cytometry analysis (reference value: 1.79%). In kind it is functional.
The test system of assay [33] is A549. As to the kind of experiment: Induction of apoptosis in human A549 cells assessed as live cells at 0.34 uM incubated for 48 hrs by Annexin V/PI staining based flow cytometry analysis (reference value: 90.7%). In kind it is functional.
Assay [34] concerns A549. As to the kind of experiment: Downregulation of phosphorylated ERK/ERK protein expression in human A549 cells at 0.11 to 0.34 uM measured after 48 hrs by Western blot analysis. In kind it is functional, cell-based. The following applies: dose 0.11-0.34 µM.
Assay [35] deals with A549. Put plainly: Inhibition of cell migration in human A549 cells at 0.34 uM measured after 48 hrs by scratch assay relative to control. In kind it is functional.
Assay [36] has as its system A549. Put plainly: Induction of apoptosis in human A549 cells assessed as dead cells at 0.22 uM incubated for 48 hrs by Annexin V/PI staining based flow cytometry analysis (reference value: 4.58%). In kind it is functional.
Assay [37] deals with A549. As to the kind of experiment: Antiproliferative activity against human A549 cells assessed as inhibition of cell growth measured after 72 hrs by MTT assay. In kind it is functional, cell-based. The conditions noted are these: A549, 72 h.

The source of these data is ChEMBL document CHEMBL5579792, “Natural products fragment-based design and synthesis of a novel pentacyclic ring system as potential MAPK inhibitor” (Bioorg Med Chem Lett, 2024).

Active and inactive are the calls of the source. The rule behind the calls is not given here.

As for `CC[C@@]1(O)C(=O)OCc2c1cc1n(c2=O)Cc2cc3ccccc3nc2-1` [CAMPTOTHECIN], the IC50 in the assay on A549 [1] is 0.39 µM.
`O=c1c2cc3ccccc3nc2nc2n1-c1ccccc1/C2=N\O`: the IC50 with HCT-116, with MDA-MB-231 and in the assay with A549 [1] was over 100 µM throughout.
In the case of `Cc1ccc2c(c1Cl)C(=O)c1nc3nc4ccccc4cc3c(=O)n1-2`, the IC50 was 43.2 µM in the assay with HCT-116, 1.95 µM in the assay on MDA-MB-231 and 35.1 µM in the assay on A549 [1].
As for `O=C1c2cc(F)c(Cl)cc2-n2c1nc1nc3ccccc3cc1c2=O`, the IC50 amounted to 0.4 µM with HCT-116, 10.1 µM in the assay with MDA-MB-231 and 0.43 µM in the assay with A549 [1].
As for `N/N=C1\c2ccccc2-n2c1nc1nc3ccccc3cc1c2=O`, the IC50 in the assay with HCT-116, with MDA-MB-231 and in the assay with A549 [1] was over 100 µM each time.
For `O=C1c2ccccc2-n2c1nc1nc3ccccc3cc1c2=O`, the result with A549 [2], in the assay with A549 [10], in the assay on A549 [13], in the assay with A549 [16], in the assay with A549 [27] and in the assay with A549 [34] was Active. Moreover, the Activity in the assay with A549 [3] is reported as 17.4%; with A549 [4] it was 25.65%; in the assay on A549 [6], 18%; in the assay on A549 [7] it was 7.17%; in the assay with A549 [8] it was 29.02%; in the assay with A549 [11], 5.59%. Besides, the Activity stood at 67.5% in the assay with A549 [14]; 66.9% in the assay with A549 [15]; 60.39% with A549 [18]; 9.58% in the assay on A549 [19]; 72.8% with A549 [20]; 8.87% in the assay with A549 [22]. For the same compound, the Activity in the assay on A549 [23] was determined as 8.47%; in the assay with A549 [25] it was 62.47%; in the assay on A549 [26] it was 22.63%; in the assay on A549 [29], 19.9%; with A549 [30], 7.83%; in the assay with A549 [31] it was 9.32%. Moreover, the Activity with A549 [32] worked out at 7.39%; in the assay with A549 [33] it was 63.4%; with A549 [36], 6.65%. The inhibition at 0.22 µM was found to be 31% in the assay with A549 [5] and 56% in the assay with A549 [9]. The inhibition at 0.34 µM amounted to 38% in the assay on A549 [12] and 60% in the assay on A549 [35]. Moreover, the IC50 with HCT-116 worked out at 25.2 µM; in the assay on A549 [17], 0.43 µM; in the assay with A549 [21], 0.34 µM; in the assay with MDA-MB-231, 3.54 µM; with A549 [1], 0.34 µM; with A549 [37] it was 0.25 µM. In addition, the inhibition at 0.11 µM in the assay on A549 [24] stood at 50%; in the assay on A549 [28], 22%.
As to `O=C1c2ccccc2-n2c1nc1cc3ccccc3cc1c2=O` [BENZO[K]TRYPTANTHRIN], the IC50 with HCT-116 is 13.5 µM; with MDA-MB-231 it was 17.6 µM; with A549 [1], 10.3 µM.
For the compound `O=C1c2c(ccc(F)c2Cl)-n2c1nc1nc3ccccc3cc1c2=O`, the 50% inhibitory concentration (IC50) in the assay with HCT-116 came out at 0.33 µM; in the assay on MDA-MB-231, 10.3 µM; in the assay with A549 [1] it was 0.53 µM.
As to `O=C1c2cc(F)ccc2-n2c1nc1nc3ccccc3cc1c2=O`, the IC50 came to 15 µM in the assay on HCT-116, 10.1 µM in the assay with MDA-MB-231 and 6.45 µM with A549 [1].
